Measured values published in patent publication US7449545B2, “Antimicrobial bolisin peptides” (IPF Pharmaceuticals GmbH, priority 2001, dated 2008).
Ends that are not written are not given here.

Key:
Type in all cases: cell-based
[1] = system: Enterococcus faecalis ATCC 51299 (vancomycin-resistant); conditions: ATCC 51299, 2 h
Description: (§1) The bolisin analogues of the present invention were examined for their suitability as antibiotic therapeutical agents by means of various biological tests. Thus, the chemically synthesized peptides were examined for their antimicrobial effectiveness against three Gram-positive and three Gram-negative bacterial strains as well as against a yeast.
(§2) The following microorganisms were used: • Gram-positive: Staphylococcus aureus ATCC 25923 • Enterococcus faecalis ATCC 51299 (vancomycin-resistant) • Streptococcus pneumoniae DSM 11865 (penicillin-resistant) • Gram-negative: Escherichia coli ATCC 25922 • Pseudomonas aeruginosa ATCC 9027 • Klebsiella pneumoniae ATCC 10031 • Yeast: Candida albicans ATCC 10231
(§3) The antibiotic activity of bolisin analogues was examined by determining the minimum inhibition concentration. […] This method allows to obtain a quantitative result about the antimicrobial potency of the peptides. These examinations were performed by analogy with the recommendations (M7-A3) edited by the NCCLS (National Committee for Clinical Laboratory Standards) by applying a dilution test in a liquid medium using chemically synthesized peptides (peptide sequences according to claims 1 to 3). Mueller Hinton Broth was used as the test medium according to the NCCLS recommendations unless indicated otherwise. […] The minimum inhibition concentrations are stated in [μg/ml].
(§4) A complete growth inhibition could not be achieved in this case. For determining the minimum inhibition concentration, the following microorganisms were used: • 1. Staphylococcus aureus ATCC 25923 • 2. Enterococcus faecalis ATCC 51299 (vancomycin-resistant) • 3. Streptococcus pneumoniae DSM 11865 (penicillin-resistant) • 4. Escherichia coli ATCC 25922 • 5. Pseudomonas aeruginosa ATCC 9027 • 6. Klebsiella pneumoniae ATCC 10031 • 7. Candida albicans ATCC 10231

[2] = system: Klebsiella pneumoniae ATCC 10031; conditions: ATCC 10031, 2 h
Description: as §1, §2, §3, §4

[3] = system: Streptococcus pneumoniae DSM 11865 (penicillin-resistant); conditions: DSM 11865, 2 h
Description: as §1, §2, §3, §4

[4] = system: Escherichia coli ATCC 25922; conditions: ATCC 25922, 2 h
Description: as §1, §2, §3, §4

[5] = system: Candida albicans ATCC 10231; conditions: for minimum inhibition concentration: ATCC 10231, 2 h; for peptide concentration giving 75% inhibition of growth (value in parentheses): Mueller Hinton Broth, complete growth inhibition not achieved
Description: as §1, §2, §3, §4

[6] = system: Staphylococcus aureus ATCC 25923; conditions: ATCC 25923, 2 h
Description: as §1, §2, §3, §4

[7] = system: Pseudomonas aeruginosa ATCC 9027; conditions: Mueller Hinton Broth; complete growth inhibition not achieved
Description: as §1, §2
The antibiotic activity of bolisin analogues was examined by determining the minimum inhibition concentration. The minimum inhibition concentration of an analogue designates the lowest peptide concentration which is required to inhibit the growth of microorganisms completely after an incubation time of 18±2 h. This method allows to obtain a quantitative result about the antimicrobial potency of the peptides. These examinations were performed by analogy with the recommendations (M7-A3) edited by the NCCLS (National Committee for Clinical Laboratory Standards) by applying a dilution test in a liquid medium using chemically synthesized peptides (peptide sequences according to claims 1 to 3). Mueller Hinton Broth was used as the test medium according to the NCCLS recommendations unless indicated otherwise. […] The minimum inhibition concentrations are stated in [μg/ml].
as §4

[8] = system: Pseudomonas aeruginosa ATCC 9027; conditions: ATCC 9027, 2 h

Substance	minimum inhibition concentration [1] [µg/mL]	minimum inhibition concentration [2] [µg/mL]	minimum inhibition concentration [3] [µg/mL]	minimum inhibition concentration [4] [µg/mL]	minimum inhibition concentration [5] [µg/mL]	minimum inhibition concentration [6] [µg/mL]	peptide concentration giving 75% inhibition of growth (value in parentheses) [7]	minimum inhibition concentration [8] [µg/mL]	peptide concentration giving 75% inhibition of growth (value in parentheses) [5]
YIVYKIRWAWKRKKALK-OH [BOL-61, YIVYKIRWAWKRKKALK]	25	18.75	25	25	9.375	37.5	75 µg/mL	300	
YIVYKIRWARKRWKALK-OH [BOL-51, YIVYKIRWARKRWKALK]	25	18.75	12.5	50		37.5	25 µg/mL	300	(18.75) μg/ml
YIVRKIRSARKRRKALK-OH [BOL-83, YIVRKIRSARKRRKALK]	>300	>300	>300	>300	300	>300		>300	
YIVWKIRSAWKRWKALK-OH [BOL-82, YIVWKIRSAWKRWKALK]	75	12.5	37.5	18.75	9.375	18.75	(9.375) μg/ml		
YIVWKIRSARKRRKALK-OH [BOL-74, YIVWKIRSARKRRKALK]	150	18.75	150	300	75	300	(12.5) μg/ml		
KYIVYKIRSAWKRSKALK-OH [BOL-85, KYIVYKIRSAWKRSKALK]	300	150	300	>300	75	>300	(37.5) μg/ml		
KYIVYKIRWARKRRKALK-OH [BOL-87, KYIVYKIRWARKRRKALK]	37.5	9.375	9.375	18.75	9.375	9.375	(9.375) μg/ml		
YIVYKIRSAWKRWK-OH [BOL-70, YIVYKIRSAWKRWK]	150	75	150	100	37.5	100	(100) μg/ml		
YIVYKIRWAWKRRKALK-OH [BOL-48, YIVYKIRWAWKRRKALK]	12.5	4.7	9.375	18.75	9.375	9.375	6.5 µg/mL	200	
YIVYKIRWAKKRKKALK-OH [BOL-59, YIVYKIRWAKKRKKALK]	50	18.75	50	150		50	(18.75) μg/ml		(9.375) μg/ml
YIVYKIRSAWKRRK-OH [BOL-69, YIVYKIRSAWKRRK]	150	300	200	150	37.5	300	(200) μg/ml		
YIRYKRRSARKRRKALK-OH [BOL-18, YIRYKRRSARKRRKALK]	>300	37.5	>300	18.75		18.75		300	
YIVYKIRRAWKRWKALK-OH [BOL-55, YIVYKIRRAWKRWKALK]	50	3.125	37.5	12.5	9.375	12.5	(9.375) μg/ml		
KYIVYKIRSARKRRKALK-OH [BOL-84, KYIVYKIRSARKRRKALK]	>300	75	300	>300	37.5	>300	(75) μg/ml		
YIVYKIRSADKRSKALK-OH [Bolisin]	>300	>300	>300	>300	>300	>300		>300	
YIRYKIRSARKRRKALK-OH [BOL-17, YIRYKIRSARKRRKALK]	200	9.375	300	37.5		37.5		200	
YIVYKIRWAWKRSKALK-OH [BOL-47, YIVYKIRWAWKRSKALK]	25	9.375	18.75	18.75	18.75	18.75	(25) μg/ml		
YIVYKIRWARKRRKALK-OH [BOL-50, YIVYKIRWARKRRKALK]	25	9.375	18.75	50	9.375	37.5	(6.25) μg/ml		
YIVWKIRSAWKRSKALK-OH [BOL-75, YIVWKIRSAWKRSKALK]	200	75	150	75	37.5	150	(37.5) μg/ml		
